Test results reported in patent publication US20080269335A1, “Crth2 Receptor Antagonists” (priority 2004, published 2008).
Like-named read-outs stand apart in the source and are kept apart here.

Experiments:
[1] = target: T1, CRTh2 receptor (Homo sapiens, UniProt Q9Y5Y4); experiment: CRTh2 cAMP functional assay; assay type: cell-based; parameters: expressed in transfected cells; host or cells: CHO cells; conditions: CHO cells stably transfected with CRTh2; 10 nM Prostaglandin D2 and 5 μM forskolin; cAMP Alphascreen
T1 sequence (Q9Y5Y4 1-395): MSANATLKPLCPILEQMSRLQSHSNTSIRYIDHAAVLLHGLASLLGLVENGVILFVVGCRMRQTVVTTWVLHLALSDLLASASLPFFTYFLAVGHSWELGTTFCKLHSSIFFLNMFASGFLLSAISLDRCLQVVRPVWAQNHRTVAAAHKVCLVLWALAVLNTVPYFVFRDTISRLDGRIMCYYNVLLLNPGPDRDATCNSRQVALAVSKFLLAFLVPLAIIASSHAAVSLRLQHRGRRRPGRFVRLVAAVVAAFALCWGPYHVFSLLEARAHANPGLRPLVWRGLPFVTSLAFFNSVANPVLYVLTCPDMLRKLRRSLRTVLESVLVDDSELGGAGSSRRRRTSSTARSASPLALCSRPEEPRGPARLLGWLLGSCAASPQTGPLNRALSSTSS
Protocol: CRTh2 cAMP Functional Assay Protocol
For each concentration value on the dose-response curve, test compounds are prepared in assay stimulation buffer/DMSO and 5 μL/well is added to an assay plate (384 well, white optiplate).
CHO cells stably transfected with the CRTh2 receptor are prepared (dissociated from a cell culture flask and washed in PBS) to a concentration of 4×10^6/mL in assay stimulation buffer and added to the assay plate ([…]).
The assay plate is incubated at room temperature on a shaker for 15 minutes.
A mix of agonist (10 nM Prostaglandin D2) and 5 μM forskolin is prepared in assay stimulation buffer and added to the assay plate (5 μL/well).
In addition, a cAMP standard is serially diluted in assay stimulation buffer and added to separate empty wells on the assay plate (20 μL/well).
The assay plate is incubated at room temperature on a shaker for 60 minutes.
A cell lysis mix (lysis buffer containing Alphascreen™ donor beads and biotinylated cAMP) is prepared under darkened conditions 60 minutes prior to addition. Alphascreen™ acceptor beads are added to the lysis mix after 60 minutes. The resulting lysis mix is added to all wells of the assay plate (40 μL/well).
The assay plate is sealed with Topseal-S™ and incubated in the dark at room temperature on a shaker for 45 minutes. The plate is then counted using a Packard Fusion™ instrument.
The resulting counts per minute are converted to nM cAMP by using the prepared cAMP standard curve. IC50 values are then determined using Prism™ software.

[2] = target: T1, CRTh2 receptor; experiment: Scintillation Proximity Assay (SPA) binding assay, 3H prostaglandin D2; parameters: expressed in transfected cells; host or cells: K562 or CHO cells (membranes)
Protocol: Scintillation Proximity Assay (SPA) Protocol
Membranes are prepared from K562 or Chinese hamster ovary (CHO) cells stably transfected with human CRTh2 receptors.
The assay is performed in a 96 well U-bottomed polypropylene plate in a final volume of 100 μL. For each concentration of test compound on the dose-response curve, the components of the assay are added sequentially as follows: test compound in DMSO/assay buffer (25 μL), ^3H prostaglandin D2 (25 μL) and CRTh2 membrane fragments (50 μL). The assay is incubated at ambient temperature with shaking for 60 minutes, and then harvested on to filter plates. The plate is dried for 2 hours, prior to addition of Micro-Scint 20™ (50 μL) and sealing with TopSeal-S™. Plates are then counted using a Packard Top Count instrument, each well being counted for 20 minutes. Ki values are determined using Sigma Plot™ software, using the Cheng-Prussoff equation.

[3] = membranes from K562 or CHO cells stably transfected with human CRTh2, 3H prostaglandin D2, read-out: Ki values in the SPA binding assay

| SMILES | IC50 [1] | Ki [2] | Ki [2, 3] |
| --- | --- | --- | --- |
| O=C(O)COc1ccc(Cl)cc1C1CCCCCC1 [Example 2, (4-Chloro-2-cycloheptylphenoxy)acetic acid] | 148 nM | 60 nM | – |
| O=C(O)COc1ccc(Br)cc1C1CCCCC1 [Example 3, (4-Bromo-2-cyclohexylphenoxy)acetic acid] | 190 nM | – | – |
| O=C(O)COc1ccc(Br)cc1C1CCCCCC1 [Example 5, (4-Bromo-2-cycloheptylphenoxy)acetic acid] | 138 nM | – | 70 nM |
| O=C(O)COc1ccc(C(F)(F)F)cc1C1CCCCC1 [Example 13, (2-Cyclohexyl-4-trifluoromethyl-phenoxy)-acetic acid] | 139 nM | – | 21 nM |
